Laboratory results: PubChem BioAssay AID1845213 (Molecular Pharmacology Branch, DTP, NCI, 2023)
“And” between values parts separate entries of the source, which are not always exact repeats. Equal values may be shown once. The source made the active and inactive calls. Rule for the calls: active = viability on the fitted dose curve at most 10% of control; inactive = the rest.

System: NCI-H841 complex tumor spheroid viability
Assay: Anticancer human tumor NCI-H841 cell line growth inhibition;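 for IC50: spheroids exposed to compounds for 7 days before readout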;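 for viability, T/C: spheroids exposed to compounds for 7 days before readout; 100% = DMSO vehicle control wells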
Details: for viability, T/C: stronger effect = lower value
Description: Multicellular complex tumor spheroid response to DNA repair inhibitors in combination with DNA-damaging drugs
This study explores the anticancer activities of DNA-damaging drugs and inhibitors of DNA damage repair, both as single agents and in combinations. Complex tumor spheroids comprised of malignant cells, endothelial cells and mesenchymal stem cells served as an in vitro model for human solid tumors. This model system incorporates physiologically relevant features and patient-derived or established malignant cell lines with clinically relevant genetic alterations from many tumor types. Twenty-six patient-derived or established malignant cell lines were evaluated representing sarcoma, melanoma, small cell lung cancer (SCLC), non-small cell lung cancer (NSCLC), as well as bladder, ovarian and pancreatic cancers. The concentration ranges selected for each drug and investigational agent were based upon clinically achievable concentrations if the clinical Cmax of the agent was known.
Compounds. The drugs and compounds olaparib (NSC753686), talazoparib (NSC767125), berzosertib (NSC777718), elimusertib (NSC800525), nedisertib (NSC802822), VX-984 (NSC792969), AZD-1390 (NSC803789), temozolomide (NSC362856), topotecan (NSC609699), trabectedin (NSC813783), staurosporine (NSC755774), and gemcitabine (NSC613327) were obtained from the National Cancer Institute (NCI) Developmental Therapeutics Program Chemical Repository. The FDA-approved anticancer drug set is available from the Developmental Therapeutics Program at https://dtp.cancer.gov/organization/dscb/obtaining/available_plates.htm. […] The stock solutions were prepared in dimethyl sulfoxide (DMSO, Sigma-Aldrich, St. Louis, MO, cat. D2650) at 400-fold the tested concentration and stored at -70 degrees C. Prior to their use, the stock solutions were diluted in fresh medium and the final DMSO concentration in the assay was 0.25% (v/v). All drugs and investigational agents were tested over a range starting from a high concentration at or near the clinical Cmax and decreasing in half-log increments. If the clinical Cmax for an agent had not been determined, the highest concentration tested was 10 microM.
Cell Lines. The patient-derived cancer cell (PDC) lines: 156681-154-R-J1-PDC, 283228-195-R-J1-PDC, 287954-098-R-J1-PDC, 292921-168-R-J2-PDC, 349418-098-R-PDC, 425362-245-T-J1-PDC, 556581-035-R-J1-PDC, and BL0293-F563-PDC were received from the NCI Patient-Derived Models Repository (PDMR, https://pdmr.cancer.gov). The established cell lines HS-SY-2 (RRID:CVCL_8719), MPNST, and SYO-1 (RRID:CVCL_7146) were obtained from the Sloan Kettering Institute. The alveolar soft parts sarcoma cell line ASPS-1 (RRID:CVCL_S738) was established at the NCI and grown from internal seed stocks. The following established cell lines were purchased from the American Type Culture Collection (ATCC, Manassas, VA): G-401 (ATCC, cat. CRL-1441, RRID:CVCL_0270), SW982 (ATCC, cat. HTB-93, RRID:CVCL_1734), VA-ES-BJ (ATCC, cat. CRL-2138, RRID:CVCL_1785), NCI-H719 (ATCC, cat. CRL-5837, RRID:CVCL_1582), NCI-H196 (ATCC, cat. CRL-5823, RRID:CVCL_1509), NCI-H841 (ATCC, cat. CRL-5845, RRID:CVCL_1595), NCI-H1618 (ATCC, cat. CRL-5879, RRID:CVCL_1480), NCI-H1876 (ATCC, cat. CRL-5902, RRID:CVCL_1503), DMS 114 (ATCC, cat. CRL-2066; RRID:CVCL_1174), NCI-H211 (ATCC, cat. CRL-5824; RRID:CVCL_1529), and SW 1271 (ATCC, cat. CRL-2177, RRID:CVCL_1716). The small cell lung cancer cell line COR-L88 was purchased from Sigma-Aldrich (cat. 92031917-1VL, RRID:CVCL_1141). The non-small cell lung cancer cell lines NCI-H226 (RRID:CVCL_1544) and NCI-H322M (RRID:CVCL_1557) were established at the NCI and grown from internal seed stocks. Pooled donor human umbilical vein endothelial cells (HUVEC, Lonza, cat. CC-2519) and human mesenchymal stem cells (hMSC, Lonza, cat. PT-2501) were purchased from Lonza (Walkersville, MD).
Cell Culture. All cells were maintained in an incubator at 37 degrees C and 5% CO2 with 95% humidity. […]

[1] = curve of first compound, second compound 0.003 µM

[2H]c1nc(C)nc([2H])c1-c1cc(NC[C@@H](C)c2cccc3c(C(=O)NC)ccnc23)ncn1 + CC[C@@]1(O)C(=O)OCc2c1cc1n(c2=O)Cc2cc3c(CN(C)C)c(O)ccc3nc2-1
IC50 [1]: > 10000 nM
IC50 (curve of first compound, second compound 0.00949 µM): > 10000 nM
IC50 (curve of first compound, second compound 0.03 µM): < 31.6 nM
IC50 (curve of first compound, second compound 0.0949 µM): < 31.6 nM
IC50 (curve of first compound, second compound 0.3 µM): < 31.6 nM
viability, T/C (second compound 0.003 µM, first compound 0.0316 µM): 97.6%
viability, T/C (second compound 0.003 µM, first compound 0.1 µM): 95.8%
viability, T/C (second compound 0.003 µM, first compound 0.316 µM): 96.1%
viability, T/C (second compound 0.003 µM, first compound 1 µM): 96.4%
viability, T/C (second compound 0.003 µM, first compound 3.16 µM): 93.4%
viability, T/C (second compound 0.003 µM, first compound 10 µM): 93%
viability, T/C (second compound 0.00949 µM, first compound 0.0316 µM): 83.9%
viability, T/C (second compound 0.00949 µM, first compound 0.1 µM): 76.5%
viability, T/C (second compound 0.00949 µM, first compound 0.316 µM): 74.4%
viability, T/C (second compound 0.00949 µM, first compound 1 µM): 75.2%
viability, T/C (second compound 0.00949 µM, first compound 3.16 µM): 68.7%
viability, T/C (second compound 0.00949 µM, first compound 10 µM): 62.6%
viability, T/C (second compound 0.03 µM, first compound 0.0316 µM): 2.66%
viability, T/C (second compound 0.03 µM, first compound 0.1 µM): 2.14%
viability, T/C (second compound 0.03 µM, first compound 0.316 µM): 2.36%
viability, T/C (second compound 0.03 µM, first compound 1 µM): 1.49%
viability, T/C (second compound 0.03 µM, first compound 3.16 µM): 1.43%
viability, T/C (second compound 0.03 µM, first compound 10 µM): 1.47%
viability, T/C (second compound 0.0949 µM, first compound 0.0316 µM): 1.75%
viability, T/C (second compound 0.0949 µM, first compound 0.1 µM): 1.82%
viability, T/C (second compound 0.0949 µM, first compound 0.316 µM): 1.89%
viability, T/C (second compound 0.0949 µM, first compound 1 µM): 1.74%
viability, T/C (second compound 0.0949 µM, first compound 3.16 µM): 1.58%
viability, T/C (second compound 0.0949 µM, first compound 10 µM): 1.67%
viability, T/C (second compound 0.3 µM, first compound 0.0316 µM): 1.97%
viability, T/C (second compound 0.3 µM, first compound 0.1 µM): 1.94%
viability, T/C (second compound 0.3 µM, first compound 0.316 µM): 1.59%
viability, T/C (second compound 0.3 µM, first compound 1 µM): 1.73%
viability, T/C (second compound 0.3 µM, first compound 3.16 µM): 1.5%
viability, T/C (second compound 0.3 µM, first compound 10 µM): 1.17%

Cn1ncnc1[C@H]1c2n[nH]c(=O)c3cc(F)cc(c23)N[C@@H]1c1ccc(F)cc1 + COc1cc2c(cc1O)CCNC21CSC2c3c(OC(C)=O)c(C)c4c(c3C(COC1=O)N1C(O)C3Cc5cc(C)c(OC)c(O)c5C(C21)N3C)OCO4
IC50 (curve of first compound, second compound 30 pM): 514 nM
IC50 (curve of first compound, second compound 94.9 pM): 252 nM
IC50 (curve of first compound, second compound 0.0003 µM): < 9.49 nM
IC50 (curve of first compound, second compound 0.000949 µM): < 9.49 nM
IC50 [1]: < 9.49 nM
viability, T/C (second compound 30 pM, first compound 0.00949 µM): 94%
viability, T/C (second compound 30 pM, first compound 0.03 µM): 91.6%
viability, T/C (second compound 30 pM, first compound 0.0949 µM): 86.4%
viability, T/C (second compound 30 pM, first compound 0.3 µM): 71.3%
viability, T/C (second compound 30 pM, first compound 0.949 µM): 26.4%
viability, T/C (second compound 30 pM, first compound 3 µM): 1.05%
viability, T/C (second compound 94.9 pM, first compound 0.00949 µM): 85.6%
viability, T/C (second compound 94.9 pM, first compound 0.03 µM): 76.5%
viability, T/C (second compound 94.9 pM, first compound 0.0949 µM): 66.1%
viability, T/C (second compound 94.9 pM, first compound 0.3 µM): 51.5%
viability, T/C (second compound 94.9 pM, first compound 0.949 µM): 11%
viability, T/C (second compound 94.9 pM, first compound 3 µM): 1.19%
viability, T/C (second compound 0.0003 µM, first compound 0.00949 µM): 16.7%
viability, T/C (second compound 0.0003 µM, first compound 0.03 µM): 9.8%
viability, T/C (second compound 0.0003 µM, first compound 0.0949 µM): 7.64%
viability, T/C (second compound 0.0003 µM, first compound 0.3 µM): 2.97%
viability, T/C (second compound 0.0003 µM, first compound 0.949 µM): 1.63%
viability, T/C (second compound 0.0003 µM, first compound 3 µM): 1.27%
viability, T/C (second compound 0.000949 µM, first compound 0.00949 µM): 3.02%
viability, T/C (second compound 0.000949 µM, first compound 0.03 µM): 3.35%
viability, T/C (second compound 0.000949 µM, first compound 0.0949 µM): 2.75%
viability, T/C (second compound 0.000949 µM, first compound 0.3 µM): 2.82%
viability, T/C (second compound 0.000949 µM, first compound 0.949 µM): 2.18%
viability, T/C (second compound 0.000949 µM, first compound 3 µM): 0.23%
viability, T/C (second compound 0.003 µM, first compound 0.00949 µM): 0.11%
viability, T/C (second compound 0.003 µM, first compound 0.03 µM): 0.12%
viability, T/C (second compound 0.003 µM, first compound 0.0949 µM): 0.12%
viability, T/C (second compound 0.003 µM, first compound 0.3 µM): 0.1%
viability, T/C (second compound 0.003 µM, first compound 0.949 µM): 0.1%
viability, T/C (second compound 0.003 µM, first compound 3 µM): 0.19%

O=C(c1cc(Cc2n[nH]c(=O)c3ccccc23)ccc1F)N1CCN(C(=O)C2CC2)CC1
viability, T/C (compound 0.0949 µM): 101% and 95.3% and 103%
outcome (compound 0.3 µM): inactive
viability, T/C (compound 0.3 µM): 93.6% and 103%
viability, T/C (compound 0.949 µM): 94.8% and 89.4% and 99.4%
viability, T/C (compound 3 µM): 43.4% and 81.5% and 88.2%
viability, T/C (compound 30 µM): 8.7% and 7.95% and 1.92%
IC50 (curve of compound): 2580 nM and 6160 nM and 5100 nM

Cc1sc2c(c1C)C(c1ccc(Cl)cc1)=NC(CC(=O)Nc1ccc(O)cc1)c1nnc(C)n1-2 (centres undefined)
viability, T/C (compound 0.00949 µM): 104% and 97.9% and 102%
viability, T/C (compound 0.03 µM): 110% and 95.7% and 101%
viability, T/C (compound 0.0949 µM): 87.8% and 91.9% and 91.2%
viability, T/C (compound 0.3 µM): 65.4% and 75.9% and 82.7%
viability, T/C (compound 0.949 µM): 25.2% and 33.3% and 44%
viability, T/C (compound 3 µM): 8.1% and 7.29% and 14.4%
IC50 (curve of compound): 452 nM and 604 nM and 807 nM
